Values after ≈ are worked out from the molar mass of the structure shown. Values joined by “and” are separate entries in the source; they are usually repeats but may differ in a detail not shown here. Identical values can stand only once.
Tests used:
Test in all cases: ≥ marks a high value that may be exact or a test limit, other limits are often not marked, values filed in µg/mL are converted to µM
Pseudomonas aeruginosa = system: Pseudomonas aeruginosa
[1] = system: Pseudomonas aeruginosa ATCC 27853
[2] = system: Cryptococcus neoformans ATCC 208821
[3] = system: Klebsiella pneumoniae ATCC BAA-2146
[4] = system: Klebsiella pneumoniae ATCC 13883
Klebsiella pneumoniae = system: Klebsiella pneumoniae
[5] = system: Escherichia coli ATCC 25922
[6] = system: Acinetobacter baumannii ATCC 19606
[7] = system: Bacillus subtilis ATCC 6051
[8] = system: Staphylococcus aureus ATCC 43300
[9] = system: Candida albicans ATCC 90028
Acinetobacter baumannii = system: Acinetobacter baumannii
[10] = system: Klebsiella pneumoniae ATCC 700603
[11] = system: Pseudomonas aeruginosa H1001
[12] = system: Escherichia coli ATCC 43827
[13] = system: Cronobacter sakazakii ATCC 29544
[14] = system: Staphylococcus epidermidis ATCC 12228
[15] = system: Staphylococcus aureus ATCC 6538
[16] = system: Candida tropicalis ATCC 750
[17] = system: Candida albicans ATCC 14053
[18] = system: Bacillus subtilis CCT 2576
[19] = system: Staphylococcus aureus ATCC 29213
Candida krusei ATCC 6258 = system: Candida krusei ATCC 6258
[20] = system: Bacillus subtilis ATCC 23857
Candida glabrata = system: Candida glabrata
Candida albicans = system: Candida albicans
[21] = system: Candida glabrata ATCC 2001
[22] = system: Pseudomonas aeruginosa ATCC 15422
Escherichia coli ML-35 = system: Escherichia coli ML-35
[23] = system: Staphylococcus aureus ATCC 25923
[24] = system: Escherichia coli ATCC 8739
[25] = system: Klebsiella pneumoniae KCTC 2208
[26] = system: Acinetobacter baumannii KCTC 2508

| Compound | MIC (Pseudomonas aeruginosa) [µM] | MIC [1] [µM] | MIC [2] [µM] | MIC [3] [µM] | MIC [4] [µM] | MIC (Klebsiella pneumoniae) [µM] | MIC [5] [µM] | MIC [6] [µM] | MIC [7] [µM] | MIC [8] [µM] | MIC [9] [µM] | MIC (Acinetobacter baumannii) [µM] | MIC [10] [µM] | MIC [11] [µM] | further results |
| --- | --- | --- | --- | --- | --- | --- | --- | --- | --- | --- | --- | --- | --- | --- | --- |
| CC(C)[C@@H]1NC(=O)[C@H](CCCN=C(N)N)NC(=O)[C@H](Cc2ccccc2)NC(=O)[C@@H](NC(=O)[C@H](Cc2c[nH]c3ccccc23)NC(=O)[C@@H](N)CCCCN)CSSC[C@@H](C(=O)N[C@@H](CCCN=C(N)N)C(=O)O)NC(=O)[C@H](CCCN=C(N)N)NC(=O)[C@H](CCCN=C(N)N)NC(=O)[C@H](Cc2ccc(O)cc2)NC(=O)[C@@H]2CSSC[C@H](NC1=O)C(=O)N[C@@H](Cc1ccc(O)cc1)C(=O)N[C@@H](CCCN=C(N)N)C(=O)NCC(=O)N[C@@H](C)C(=O)N2 [KWCFRVCYRGACYRRCR] | 0.449 (≈ 0.998 µg/mL) | 0.112 (≈ 0.25 µg/mL) | 0.225 (≈ 0.499 µg/mL) | 0.112 (≈ 0.25 µg/mL) | 0.112 (≈ 0.25 µg/mL) | 3.59 (≈ 7.99 µg/mL) | 0.0561 (≈ 0.125 µg/mL) | 0.112 (≈ 0.25 µg/mL) | 0.0561 (≈ 0.125 µg/mL) | 0.898 (≈ 2 µg/mL) | 0.898 (≈ 2 µg/mL) | 0.112 (≈ 0.25 µg/mL) | 0.225 (≈ 0.499 µg/mL) |  |  |
| CC(C)C[C@H](NC(=O)[C@H](Cc1ccc(O)cc1)NC(=O)[C@@H]1CCCN1C(=O)[C@@H]1CCCN1C(=O)[C@H](CCCCN)NC(=O)[C@H](CC(=O)O)NC(=O)[C@@H](N)C(C)C)C(=O)N1CCC[C@H]1C(=O)N[C@@H](CCCN=C(N)N)C(=O)N1CCC[C@H]1C(=O)N[C@@H](CCCN=C(N)N)C(=O)N1CCC[C@H]1C(=O)N1CCC[C@H]1C(=O)N[C@@H](CCCN=C(N)N)C(=O)N[C@@H](CCCN=C(N)N)C(=O)N[C@@H](Cc1ccccc1)C(=O)N[C@@H](Cc1ccc(O)cc1)C(=O)N[C@@H](CC(N)=O)C(=O)N[C@@H](CCCN=C(N)N)C(=O)NCC(=O)O [VDKPPYLPRPRPPRRFYNRG] |  |  |  |  |  |  |  |  |  |  |  |  |  | 0.105 (≈ 0.26 µg/mL) |  |
| CC[C@H](C)[C@H](N)C(=O)N[C@@H](CC(C)C)C(=O)NCC(=O)N[C@H](C(=O)N[C@H](C(=O)N[C@@H](CC(C)C)C(=O)NCC(=O)N[C@@H](CC(C)C)C(=O)N[C@@H](CC(C)C)C(=O)N[C@@H](CCCCN)C(=O)N[C@@H](CO)C(=O)N[C@@H](CC(C)C)C(N)=O)[C@@H](C)CC)[C@@H](C)O [ILGTILGLLKSL] |  |  |  |  |  |  | 32 (≈ 39.7 µg/mL) |  |  |  |  |  | 128 (≈ 159 µg/mL) |  | MIC [12]: ≥ 32 µM; MIC [13]: ≥ 64 µM; MIC [14]: 8 µM and > 4 µM; MIC [15]: 12.1 µM (≈ 15 µg/mL); MIC [16]: 4 µM (≈ 4.96 µg/mL); MIC [17]: 16 µM (≈ 19.8 µg/mL); MIC [18]: 12.1 µM (≈ 15 µg/mL); MIC [19]: 4 µM (≈ 4.96 µg/mL); MIC (Candida krusei ATCC 6258): ≥ 32 µM; MIC [20]: 4 µM (≈ 4.96 µg/mL); MIC (Candida glabrata): 16 µM (≈ 19.8 µg/mL); MIC (Candida albicans): 22.6 µM (≈ 28 µg/mL); MIC [21]: 16 µM (≈ 19.8 µg/mL); MIC [22]: ≥ 202 µM; MIC (Escherichia coli ML-35): ≥ 64 µM; MIC [23]: 8 µM (≈ 9.92 µg/mL) |
| CC[C@H](C)[C@H](NC(=O)[C@H](C)NC(=O)[C@H](CC(N)=O)NC(=O)[C@H](CCSC)NC(=O)[C@@H]1CCCN1)C(=O)N[C@@H](CCCCN)C(=O)N[C@@H](CC(C)C)C(=O)N[C@@H](CC(C)C)C(=O)N[C@@H](CS)C(=O)N[C@@H](CCCN=C(N)N)C(=O)N[C@H](C(=O)N[C@@H](Cc1cnc[nH]1)C(=O)N[C@@H](CCCCN)C(=O)N[C@@H](CCCCN)C(=O)N[C@H](C(=O)N[C@@H](C)C(=O)N[C@H](C(=O)N[C@@H](CO)C(=O)N[C@H](C(=O)O)C(C)C)[C@@H](C)CC)[C@@H](C)CC)C(C)C [PMNAIKLLCRVHKKIAISV] |  |  |  |  |  |  |  |  |  |  |  |  |  | 5.86 (≈ 12.5 µg/mL) | MIC [24]: ≥ 60 µM |
| CC[C@H](C)[C@H](N)C(=O)N[C@@H](C)C(=O)N[C@@H](CCCN=C(N)N)C(=O)N[C@@H](CCCN=C(N)N)C(=O)N[C@@H](C)C(=O)N[C@@H](CC(C)C)C(=O)N[C@@H](CCCCN)C(=O)N[C@@H](CCCCN)C(=O)N[C@@H](C)C(=O)N[C@@H](CCCCN)C(=O)N[C@@H](CCCN=C(N)N)C(=O)N[C@@H](C)C(=O)N[C@@H](C)C(=O)N[C@@H](Cc1cnc[nH]1)C(=O)N[C@@H](CCCCN)C(=O)N[C@H](C(=O)N1CCC[C@H]1C(=O)N[C@@H](C)C(=O)N[C@@H](CS)C(=O)N[C@@H](CCCCN)C(=O)N[C@@H](CCCCN)C(=O)N[C@@H](Cc1ccccc1)C(=O)NCC(=O)N[C@@H](CCCN=C(N)N)C(=O)N[C@@H](CCCN=C(N)N)C(N)=O)[C@@H](C)CC [IARRALKKAKRAAHKIPACKKFGRR] |  | 2 (≈ 5.75 µg/mL) |  |  |  |  |  |  |  |  |  |  |  |  | MIC [25]: 8 µM (≈ 23 µg/mL); MIC [26]: 16 µM (≈ 46 µg/mL) |
| CC[C@H](C)[C@@H]1NC(=O)CNC(=O)[C@H](CCCN=C(N)N)NC(=O)[C@H](C)NC(=O)[C@@H]2CSSC[C@H](NC1=O)C(=O)N[C@@H](Cc1ccc(O)cc1)C(=O)N[C@@H](CCCN=C(N)N)C(=O)N[C@@H](CCCN=C(N)N)C(=O)N[C@H](C(=O)N[C@@H](CCCN=C(N)N)C(=O)O)CSSC[C@H](NC(=O)[C@H](Cc1c[nH]c3ccccc13)NC(=O)[C@@H](N)CCCCN)C(=O)N[C@@H](Cc1ccccc1)C(=O)N[C@@H](CCCN=C(N)N)C(=O)N[C@@H](C(C)C)C(=O)N2 [KWCFRVCARGICYRRCR] | 0.919 (≈ 2 µg/mL) | 0.459 (≈ 0.998 µg/mL) | 0.23 (≈ 0.499 µg/mL) | 0.23 (≈ 0.499 µg/mL) | 0.0574 (≈ 0.125 µg/mL) | 3.68 (≈ 7.99 µg/mL) | 0.0276 (≈ 0.06 µg/mL) | 0.0574 (≈ 0.125 µg/mL) | 0.115 (≈ 0.25 µg/mL) | 1.84 (≈ 3.99 µg/mL) | 3.68 (≈ 7.99 µg/mL) | 0.23 (≈ 0.499 µg/mL) | 0.0574 (≈ 0.125 µg/mL) |  |  |
